Values joined by “and” are separate entries in the source; they are usually repeats but may differ in a detail not shown here. Equal values may be shown once. Toxic doses and inconclusive results are not listed. The calls were made as follows: active = survival T/C of 150% or more; inactive = T/C below 125% in these data.
Test system: P388 leukemia ip, CD2F1 mice, survival T/C
Assay: NCI In Vivo Anticancer Drug Screen. Data for tumor model P388 Leukemia (intraperitoneal) in CD2F1 (CDF1) mice
Settings: endpoint: median survival time, higher = longer survival
Outline: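 Mice carrying the transplanted tumor received test compound or vehicle. Survival was recorded in each group, and the value is the treated-group measurement divided by that of the vehicle-treated control group.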

[1] = dose: 50.0 mg/kg/injection, schedule: Q01DX009 (ip), vehicle: saline with Tween-80
[2] = dose: 100.0 mg/kg/injection, schedule: Q01DX009 (ip), vehicle: saline with Tween-80
[3] = dose: 200.0 mg/kg/injection, schedule: Q01DX009 (ip), vehicle: saline with Tween-80
[4] = dose: 400.0 mg/kg/injection, schedule: Q01DX009 (ip), vehicle: saline with Tween-80
[5] = dose: 50.0 mg/kg/injection, schedule: Q01DX005 (ip), vehicle: saline with Tween-80
[6] = dose: 100.0 mg/kg/injection, schedule: Q01DX005 (ip), vehicle: saline with Tween-80

Measured: T/C

O=C(c1ccccc1)c1c(-c2ccccc2)c(=O)n2c(sc3ccccc32)c1C(=O)c1ccccc1
inactive: dose: 100.0 mg/kg/injection, schedule: Q01DX001 (ip), vehicle: saline with Tween-80 93 % of control | dose: 200.0 mg/kg/injection, schedule: Q01DX001 (ip), vehicle: saline with Tween-80 100 % of control | dose: 400.0 mg/kg/injection, schedule: Q01DX001 (ip), vehicle: saline with Tween-80 109 % of control

CCOC(=O)C(C(=O)OCC)n1c(=O)c2c(ncn2C)n(C)c1=O
inactive: dose: 100.0 mg/kg/injection, schedule: Q01DX001 (ip), vehicle: Klucel (hydroxypropylcellulose) (HPC) 110 % of control | dose: 200.0 mg/kg/injection, schedule: Q01DX001 (ip), vehicle: Klucel (hydroxypropylcellulose) (HPC) 101 % of control | dose: 400.0 mg/kg/injection, schedule: Q01DX001 (ip), vehicle: Klucel (hydroxypropylcellulose) (HPC) 105 % of control

O=C(/C=C/c1ccc(O)cc1)c1ccccc1
inactive: dose: 50.0 mg/kg/injection, schedule: Q04DX003 (ip), vehicle: saline with Tween-80 105 % of control and 94 % of control | dose: 100.0 mg/kg/injection, schedule: Q04DX003 (ip), vehicle: saline with Tween-80 98 % of control and 105 % of control | dose: 200.0 mg/kg/injection, schedule: Q04DX003 (ip), vehicle: saline with Tween-80 103 % of control and 105 % of control | dose: 400.0 mg/kg/injection, schedule: Q04DX003 (ip), vehicle: saline with Tween-80 105 % of control

COc1ccc2c(c1)CSC(c1ccccc1)=C2
inactive: [1] 100 % of control | [2] 93 % of control | [3] 94 % of control | [4] 92 % of control

CC(=O)O/C(C)=C1\CCn2c1nc1ccccc1c2=O
inactive: dose: 60.0 mg/kg/injection, schedule: Q01DX005 (ip), vehicle: saline with Tween-80 104 % of control | dose: 120.0 mg/kg/injection, schedule: Q01DX005 (ip), vehicle: saline with Tween-80 107 % of control | dose: 240.0 mg/kg/injection, schedule: Q01DX005 (ip), vehicle: saline with Tween-80 101 % of control

C[Si](C)(C)Cn1ccc2ccccc21
inactive: [5] 100 % of control | [6] 105 % of control | dose: 200.0 mg/kg/injection, schedule: Q01DX005 (ip), vehicle: saline with Tween-80 108 % of control

NC(CO)(CO)CO
inactive: dose: 1600.0 mg/kg/injection, schedule: Q01DX007 (ip), vehicle: saline 121 % of control

O=C(O)/C=C/C(=O)Nc1ccc(Cl)c(Cl)c1
inactive: dose: 6.25 mg/kg/injection, schedule: Q01DX009 (ip), vehicle: Klucel (hydroxypropylcellulose) (HPC) 105 % of control | dose: 12.5 mg/kg/injection, schedule: Q01DX009 (ip), vehicle: Klucel (hydroxypropylcellulose) (HPC) 115 % of control | dose: 25.0 mg/kg/injection, schedule: Q01DX009 (ip), vehicle: Klucel (hydroxypropylcellulose) (HPC) 105 % of control | dose: 400.0 mg/kg/injection, schedule: Q01DX009 (ip), vehicle: Klucel (hydroxypropylcellulose) (HPC) 109 % of control

O=C(O)c1ccccc1-c1c2ccc(=Nc3ccccc3)cc-2oc2cc(Nc3ccc(S(=O)(=O)O)cc3)ccc12
inactive: dose: 50.0 mg/kg/injection, schedule: Q01DX005 (ip), vehicle: saline 94 % of control | dose: 100.0 mg/kg/injection, schedule: Q01DX005 (ip), vehicle: saline 98 % of control | dose: 200.0 mg/kg/injection, schedule: Q01DX005 (ip), vehicle: saline 111 % of control

OC(COc1c2ccccc2nc2ccccc12)CN1CCN(c2ccccc2)CC1 (configuration not stated)
inactive: [5] 94 % of control | [6] 90 % of control

CCOC(=O)CCC(NC(=O)c1ccc(NS(=O)(=O)c2ccc(C)cc2)cc1)C(=O)OCC (configuration not stated)
inactive: dose: 3.13 mg/kg/injection, schedule: Q01DX009 (ip), vehicle: saline with Tween-80 93 % of control | dose: 6.25 mg/kg/injection, schedule: Q01DX009 (ip), vehicle: saline with Tween-80 93 % of control | dose: 12.5 mg/kg/injection, schedule: Q01DX009 (ip), vehicle: saline with Tween-80 86 % of control | [1] 110 % of control | [2] 100 % of control | [3] 99 % of control | [4] 99 % of control

From PubChem BioAssay AID330 (DTP/NCI, 2004)
